# Reference: patent US20260216138A1, “IDENTIFICATION OF OTUD7B INHIBITOR 7BI AND ITS APPLICATION IN REDUCING GROWTH OF NSCLC AND LEUKEMIA CELLS” (The University of North Carolina at Chapel Hill, priority 2023, published 2026)
# Experiments:
# [1] = tested on: Akt-pS473; assay: Akt-pS473 immunoblot in leukemia cells (HL60, K562, THP1); format: cell-based; settings: indicated doses, 16 hrs
# Protocol: (§1) Cells were harvested and lysed in EBC buffer (50 mM Tris pH 7.5, 120 mM NaCl, 0.5% NP-40) supplemented with protease inhibitor cocktail (EDTA-free, mini-tablet) (Bimake) and phosphatase inhibitor cocktail (Bimake) by rotating in the cold room for 10 min followed by high-speed centrifugation at 4° C. The protein concentrations in supernatants of whole cell lysates were measured by NanoDrop OneC using the Bio-Rad Bradford protein assay reagent. Equal amounts of whole cell lysates were resolved on SDS-PAGE and immunoblotted with indicated antibodies. For immunoprecipitation analysis, 1 mg of total cell lysate was incubated with the indicated beads for 3-4 hr at 4° C. The recovered immuno-complexes were washed thoroughly three times with NETN buffer (20 mM Tris, pH 8.0, 100 mM NaCl, 1 mM EDTA and 0.5% NP-40) before being resuspended in SDS sample buffer and resolved on SDS-PAGE and immunoblotted with indicated antibodies.
# In addition to NSCLC, overexpression of OTUD7B was also observed in diffuse large B-cell lymphoma and served as a prognostic marker. This promoted us to examine roles of OTUD7B in leukemia cells. […] Similar to NSCLC cells, depletion of OTUD7B in K562 cells also led to increased K63-linked GβL ubiquitination (FIG. 4D). Consistent with a reduction in Akt-pS473 signals, OTUD7B depletion reduced the growth of THP1 (FIG. 4E), K562 (FIG. 4F) and HL60 (FIG. 4G) cells in vitro.
# [2] = target: T1, OTUD7A (Homo sapiens, UniProt Q8TE49); assay: Ubiquitin-AMC assay, OTUD7A; format: biochemical; settings: 50 μM 7Bi, 10 μM OTUD7A, 2 uM ubiquitin-AMC
# T1 construct: OTUD7A (residues 1-462); GST (N, cleaved yes); made in house; host or cells: E. coli BL21-Codon Plus (DE3)-RIL
# T1 sequence (Q8TE49 1-462): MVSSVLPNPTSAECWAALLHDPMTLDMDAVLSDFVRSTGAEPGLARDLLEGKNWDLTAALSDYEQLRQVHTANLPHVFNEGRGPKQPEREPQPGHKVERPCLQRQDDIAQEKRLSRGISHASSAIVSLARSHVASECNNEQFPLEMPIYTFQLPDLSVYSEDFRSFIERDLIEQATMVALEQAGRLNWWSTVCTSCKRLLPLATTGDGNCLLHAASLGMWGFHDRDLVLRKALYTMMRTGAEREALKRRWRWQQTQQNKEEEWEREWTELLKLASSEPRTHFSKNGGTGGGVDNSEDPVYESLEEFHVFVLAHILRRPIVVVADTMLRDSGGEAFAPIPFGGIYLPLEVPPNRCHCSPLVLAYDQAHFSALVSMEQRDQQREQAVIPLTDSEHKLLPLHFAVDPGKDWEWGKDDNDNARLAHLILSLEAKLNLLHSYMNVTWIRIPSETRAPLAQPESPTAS
# Protocol: 50 μM 7Bi were incubated with 300 nM OTUD7B (residues 56-446), 10 μM OTUD7A (residues 1-462), 200 nM USP21 (residues 196-565), or 500 nM USP9X (residues 1551-1970) in reaction buffer (20 mM HEPES pH=8.0, 200 mM NaCl, 0.25 mg/mL BSA and 0.005% Tween-20) for 5 min at room temperature. Then, 2 uM ubiquitin-AMC was added to start the reaction. The fluorescence emission data was collected at an excitation wavelength of 355 nm and emission wavelength of 460 nm every 3 min. Reactions were completed three times to generate the error bars.
# [3] = tested on: HL60 cells; assay: Leukemia cell proliferation, HL60; format: cell-based; settings: 72 hrs
# Protocol: 2,000 cells from indicated NSLC cell lines were seeded into each well of 96-well plates. Cell viability was measured 3 days post-treatment using MTT assays following manufacturer's instruction. For cell viability assays with inhibitor treatment, 2,000 cells from indicated NSLC and HEK293 cell lines were seeded in 96-well plate. Inhibitor was added the next day at indicated concentration and cell viability was measured after 3-day treatment. For cell proliferation assays in THP1, K562 and HL60 cell lines, 1×10^6 cells from each indicated cell line were seeded in 12.5 cm2 cell culture flask and cells were counted by hemocytometer under microscope at indicated time to monitor cell proliferation. To test inhibitor effects on THP1, K562 and HL60 cell growth, 2×10^5 cells were seeded in 12.5 cm2 cell culture flask. Inhibitor was added the next day at indicated concentrations and cell number was counted after 3 days treatment. Three independent experiments were performed to generate error bars.
# [4] = target: T2, OTUD7B binding to GβL (Homo sapiens, UniProt Q6GQQ9); assay: OTUD7B binding to GβL; format: cell-based
# T2 sequence (Q6GQQ9 1-843): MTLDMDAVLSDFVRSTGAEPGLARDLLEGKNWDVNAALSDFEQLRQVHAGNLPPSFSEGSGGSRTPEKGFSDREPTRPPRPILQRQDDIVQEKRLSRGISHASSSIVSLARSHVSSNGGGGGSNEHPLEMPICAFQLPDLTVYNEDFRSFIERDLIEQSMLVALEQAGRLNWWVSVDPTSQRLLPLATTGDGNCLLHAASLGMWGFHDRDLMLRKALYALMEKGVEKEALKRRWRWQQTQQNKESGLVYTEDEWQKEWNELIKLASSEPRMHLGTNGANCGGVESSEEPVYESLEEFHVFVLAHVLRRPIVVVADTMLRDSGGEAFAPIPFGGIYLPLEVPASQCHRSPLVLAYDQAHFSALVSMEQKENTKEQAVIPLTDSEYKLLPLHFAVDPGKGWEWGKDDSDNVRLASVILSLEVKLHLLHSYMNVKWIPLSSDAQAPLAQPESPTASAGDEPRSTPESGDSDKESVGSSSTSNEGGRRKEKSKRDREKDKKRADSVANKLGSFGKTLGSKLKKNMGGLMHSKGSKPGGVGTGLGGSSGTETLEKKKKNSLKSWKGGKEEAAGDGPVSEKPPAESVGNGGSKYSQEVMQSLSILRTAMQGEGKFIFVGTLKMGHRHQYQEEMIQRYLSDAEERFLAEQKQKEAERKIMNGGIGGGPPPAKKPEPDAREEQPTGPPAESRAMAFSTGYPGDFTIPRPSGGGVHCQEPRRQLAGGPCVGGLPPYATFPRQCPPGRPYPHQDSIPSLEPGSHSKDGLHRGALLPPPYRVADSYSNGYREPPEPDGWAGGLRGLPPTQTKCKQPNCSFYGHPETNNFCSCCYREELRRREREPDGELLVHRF
# Protocol: as §1
smiles,measurement,setting,value
Cc1cc(NC(=O)c2cnn(C)c2C(=O)Nc2cc(C)nn2C2CCCC2)n(C2CCCC2)n1 [7Bi],Akt-pS473 signals,[1]; HL60 cells,reduced Akt-pS473 signals
same,Akt-pS473 signals,[1]; K562 cells,reduced Akt-pS473 signals
same,Akt-pS473 signals,[1]; THP1 cells,reduced Akt-pS473 signals
same,inhibition of hydrolysis of ubiquitin-AMC by OTUD7A,[2],but not its close family member OTUD7A
same,cell proliferation,[3],reduced proliferation
same,OTUD7B binding to GβL,[4],nor significantly affected OTUD7B binding to GβL
